Values quoted from earlier work, collected in patent EP4527389A1 (Laboratorios Farmacéuticos Rovi S.A., priority 2022, dated 2023).

test system: not given; conditions: daily paroxetine 20 mg in patients stabilized on risperidone (4 to 8 mg/day)

Compound | decrease of 9-hydroxyrisperidone concentrations | increase of concentrations of the active moiety (the sum of risperidone plus 9-hydroxyrisperidone) | increase of mean plasma concentrations of risperidone
Fc1ccc([C@@H]2CCNC[C@H]2COc2ccc3c(c2)OCO3)cc1 [paroxetine] | approximately 10% | approximately 1.4 fold | approximately 4 fold

biological target: CYP2D6 (cytochrome P450 2D6) enzyme (Homo sapiens, UniProt P10635); conditions: three categories: strong, moderate, weak
Sequence (P10635 whole entry): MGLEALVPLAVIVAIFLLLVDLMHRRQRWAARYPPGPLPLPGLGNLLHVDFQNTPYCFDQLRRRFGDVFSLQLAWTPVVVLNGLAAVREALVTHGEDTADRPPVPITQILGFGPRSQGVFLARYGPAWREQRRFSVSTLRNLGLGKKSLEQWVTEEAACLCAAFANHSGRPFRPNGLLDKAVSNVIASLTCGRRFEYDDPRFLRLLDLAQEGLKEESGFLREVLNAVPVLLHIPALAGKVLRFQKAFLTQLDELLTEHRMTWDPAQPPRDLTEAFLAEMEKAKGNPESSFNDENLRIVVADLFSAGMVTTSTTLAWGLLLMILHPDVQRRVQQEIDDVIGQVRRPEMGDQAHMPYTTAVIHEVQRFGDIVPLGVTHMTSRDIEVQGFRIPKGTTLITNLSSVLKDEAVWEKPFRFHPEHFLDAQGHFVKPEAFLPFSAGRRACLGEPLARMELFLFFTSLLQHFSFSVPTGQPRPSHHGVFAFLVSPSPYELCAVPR

Compound | CYP2D6 enzyme inhibitor category
C=C[C@H]1C[N@@]2CC[C@H]1C[C@@H]2[C@@H](O)c1ccnc2ccc(OC)cc12 [quinidine] | strong inhibitor
Nc1nc(CC(=O)Nc2ccc(CCNC[C@H](O)c3ccccc3)cc2)cs1 [mirabegron] | moderate inhibitor
CCCS(=O)(=O)Nc1ccc(F)c(C(=O)c2c[nH]c3ncc(-c4ccc(Cl)cc4)cc23)c1F [vemurafenib] | weak inhibitor
C[C@]12CC[C@H](O)CC1=CC[C@@H]1[C@@H]2CC[C@]2(C)C(c3cccnc3)=CC[C@@H]12 [abiraterone] | moderate inhibitor
Fc1ccc([C@@H]2CCNC[C@H]2COc2ccc3c(c2)OCO3)cc1 [paroxetine] | strong inhibitor
CC(CCc1ccccc1)NCC(O)c1ccc(O)c(C(N)=O)c1 (stereo not drawn) [labetalol] | weak inhibitor
Cc1ccc(-c2cc(C(F)(F)F)nn2-c2ccc(S(N)(=O)=O)cc2)cc1 [celecoxib] | weak inhibitor
CN1C(=O)CC(=O)N(c2ccccc2)c2cc(Cl)ccc21 [clobazam] | weak inhibitor
CN(C/C=C/C#CC(C)(C)C)Cc1cccc2ccccc12 [terbinafine] | strong inhibitor
CN[C@H]1CC[C@@H](c2ccc(Cl)c(Cl)c2)c2ccccc21 [sertraline] | weak inhibitor
C[C@@H](NCCCc1cccc(C(F)(F)F)c1)c1cccc2ccccc12 [cinacalcet] | moderate inhibitor
CC(C)c1nc(CN(C)C(=O)N[C@@H](CCN2CCOCC2)C(=O)N[C@H](CC[C@H](Cc2ccccc2)NC(=O)OCc2cncs2)Cc2ccccc2)cs1 [cobicistat] | weak inhibitor
CN(C)CCC[C@@]1(c2ccc(F)cc2)OCc2cc(C#N)ccc21 [escitalopram] | weak inhibitor
C[C@H]1CNCCc2ccc(Cl)cc21 [lorcaserin] | moderate inhibitor
CN/C(=N/CCSCc1nc[nH]c1C)NC#N [cimetidine] | weak inhibitor
